Test results as given in ChEMBL document CHEMBL1255497, “Azole resistance profile of amino acid changes in Aspergillus fumigatus CYP51A based on protein homology modeling” (2010).
≈ marks a conversion by molar mass, not a printed value.

Experiments:
[1] = system: Aspergillus fumigatus; test: Antimicrobial activity against itraconazole-susceptible Aspergillus fumigatus clinical isolate expressing cyp51A F46Y, G89G, M172V, N248T, D255E, E427K mutant gene by CLSI method; assay type: functional
[2] = system: Aspergillus fumigatus; test: Antimicrobial activity against itraconazole-resistant Aspergillus fumigatus clinical isolate expressing cyp51A L98H, A284A mutant gene by CLSI method; assay type: functional
[3] = system: Aspergillus fumigatus; test: Antimicrobial activity against itraconazole-susceptible Aspergillus fumigatus clinical isolate expressing cyp51A E130D mutant gene by CLSI method; assay type: functional
[4] = system: Aspergillus fumigatus; test: Antimicrobial activity against itraconazole-resistant Aspergillus fumigatus clinical isolate expressing cyp51A M220K mutant gene by CLSI method; assay type: functional
[5] = system: Aspergillus fumigatus; test: Antimicrobial activity against itraconazole-resistant Aspergillus fumigatus clinical isolate expressing cyp51A L98H mutant gene by CLSI method; assay type: functional
[6] = system: Aspergillus fumigatus; test: Antimicrobial activity against itraconazole-susceptible Aspergillus fumigatus clinical isolate expressing wild type cyp51A gene by CLSI method; assay type: functional
[7] = system: Aspergillus fumigatus; test: Antimicrobial activity against itraconazole-resistant Aspergillus fumigatus clinical isolate expressing cyp51A L98H, Q88H mutant gene and by CLSI method; assay type: functional
[8] = system: Aspergillus fumigatus; test: Antimicrobial activity against itraconazole-resistant Aspergillus fumigatus clinical isolate expressing cyp51A G54E mutant gene by CLSI method; assay type: functional
[9] = system: Aspergillus fumigatus; test: Antimicrobial activity against itraconazole-resistant Aspergillus fumigatus clinical isolate expressing cyp51A G54W mutant gene by CLSI method; assay type: functional
[10] = system: Aspergillus fumigatus; test: Antimicrobial activity against itraconazole-resistant Aspergillus fumigatus clinical isolate expressing cyp51A M220R mutant gene by CLSI method; assay type: functional
[11] = system: Aspergillus fumigatus; test: Antimicrobial activity against itraconazole-susceptible Aspergillus fumigatus clinical isolate expressing cyp51A F46Y, G89G, L358L, E427K, C454C mutant gene by CLSI method; assay type: functional
[12] = system: Aspergillus fumigatus; test: Antimicrobial activity against itraconazole-resistant Aspergillus fumigatus clinical isolate expressing cyp51A F46Y, G89G, M172V, N248T, D255E, L358L, E427K and C454C mutant gene by CLSI method; assay type: functional
[13] = system: Aspergillus fumigatus; test: Antimicrobial activity against itraconazole-resistant Aspergillus fumigatus clinical isolate expressing cyp51A L98H, S297T, F495 mutant gene by CLSI method; assay type: functional
[14] = system: Aspergillus fumigatus; test: Antimicrobial activity against itraconazole-susceptible Aspergillus fumigatus clinical isolate expressing cyp51A F46Y, G89G, E427K, C454C mutant gene by CLSI method; assay type: functional
[15] = system: Aspergillus fumigatus; test: Antimicrobial activity against itraconazole-resistant Aspergillus fumigatus environmental isolate expressing cyp51A L98H, S52T mutant gene by CLSI method
[16] = system: Aspergillus fumigatus; test: Antimicrobial activity against itraconazole-susceptible Aspergillus fumigatus clinical isolate expressing cyp51A F46Y, M172V, L358L, E427K, C454C mutant gene by CLSI method; assay type: functional
[17] = system: Aspergillus fumigatus; test: Antimicrobial activity against itraconazole-susceptible Aspergillus fumigatus clinical isolate expressing cyp51A F46Y, G89G, M172V, N248T, D255E, L358L, E427K, C454C mutant gene by CLSI method; assay type: functional
[18] = system: Aspergillus fumigatus; test: Antimicrobial activity against itraconazole-resistant Aspergillus fumigatus clinical isolate expressing cyp51A M220V mutant gene by CLSI method; assay type: functional
[19] = system: Aspergillus fumigatus; test: Antimicrobial activity against itraconazole-resistant Aspergillus fumigatus clinical isolate expressing cyp51A L98H, F495I mutant gene by CLSI method; assay type: functional
[20] = system: Aspergillus fumigatus; test: Antimicrobial activity against itraconazole-susceptible Aspergillus fumigatus clinical isolate expressing cyp51A S400I mutant gene by CLSI method; assay type: functional
[21] = system: Aspergillus fumigatus; test: Antimicrobial activity against itraconazole-susceptible Aspergillus fumigatus environmental isolate expressing cyp51A F46Y, G89G, M172V, L358L, C454C mutant gene by CLSI method
[22] = system: Aspergillus fumigatus; test: Antimicrobial activity against itraconazole-susceptible Aspergillus fumigatus clinical isolate expressing cyp51A L252L mutant gene by CLSI method; assay type: functional
[23] = system: Aspergillus fumigatus; test: Antimicrobial activity against itraconazole-resistant Aspergillus fumigatus clinical isolate expressing cyp51A M220I mutant gene by CLSI method; assay type: functional
[24] = system: Aspergillus fumigatus; test: Antimicrobial activity against itraconazole-resistant Aspergillus fumigatus clinical isolate expressing cyp51A L98H, L339L mutant gene by CLSI method; assay type: functional
[25] = system: Aspergillus fumigatus; test: Antimicrobial activity against itraconazole-resistant Aspergillus fumigatus clinical isolate expressing cyp51A L98H, N125I mutant gene by CLSI method; assay type: functional
[26] = system: Aspergillus fumigatus; test: Antimicrobial activity against itraconazole-resistant Aspergillus fumigatus environmental isolate expressing cyp51A L98H, Q141H mutant gene by CLSI method
[27] = system: Aspergillus fumigatus; test: Antimicrobial activity against itraconazole-resistant Aspergillus fumigatus clinical isolate expressing cyp51A G138C mutant gene by CLSI method; assay type: functional
[28] = system: Aspergillus fumigatus; test: Antimicrobial activity against itraconazole-resistant Aspergillus fumigatus clinical isolate expressing wild type cyp51A gene by CLSI method; assay type: functional
[29] = system: Aspergillus fumigatus; test: Antimicrobial activity against itraconazole-susceptible Aspergillus fumigatus clinical isolate expressing cyp51A F46Y, G89G mutant gene by CLSI method; assay type: functional
[30] = system: Aspergillus fumigatus; test: Antimicrobial activity against itraconazole-susceptible Aspergillus fumigatus clinical isolate expressing cyp51A F46Y, G89G, M172V, L358L, E427K, C454C mutant gene by CLSI method; assay type: functional

| SMILES | MIC [1] [µg/mL] | MIC [2] [µg/mL] | MIC [3] [µg/mL] | MIC [4] [µg/mL] | MIC [5] [µg/mL] | MIC [6] [µg/mL] | MIC [7] [µg/mL] | MIC [8] [µg/mL] | MIC [9] [µg/mL] | MIC [10] [µg/mL] | MIC [11] [µg/mL] | MIC [12] [µg/mL] | MIC [13] [µg/mL] | MIC [14] [µg/mL] | MIC [15] [µg/mL] | MIC [16] [µg/mL] | MIC [17] [µg/mL] | MIC [18] [µg/mL] | MIC [19] [µg/mL] | MIC [20] [µg/mL] | also measured |
| --- | --- | --- | --- | --- | --- | --- | --- | --- | --- | --- | --- | --- | --- | --- | --- | --- | --- | --- | --- | --- | --- |
| CCC(C)n1ncn(-c2ccc(N3CCN(c4ccc(OCC5COC(Cn6cncn6)(c6ccc(Cl)cc6Cl)O5)cc4)CC3)cc2)c1=O (stereo not given) [ITRACONAZOLE] | 0.25 (≈ 0.354 µM) | > 16 | 0.5 (≈ 0.709 µM) | > 16 | 4 (≈ 5.67 µM) | 0.125 (≈ 0.177 µM) | > 16 | > 16 | > 16 | > 16 | 0.25 (≈ 0.354 µM) | > 16 | 16 (≈ 22.7 µM) | 0.25 (≈ 0.354 µM) | > 16 | 0.125 (≈ 0.177 µM) | 0.25 (≈ 0.354 µM) | > 16 | > 16 | 1 (≈ 1.42 µM) | MIC [21]: 0.25 µg/mL (≈ 0.354 µM); MIC [22]: 0.25 µg/mL (≈ 0.354 µM); MIC [23]: > 16 µg/mL; MIC [24]: > 16 µg/mL; MIC [25]: > 16 µg/mL; MIC [26]: > 16 µg/mL; MIC [27]: > 16 µg/mL; MIC [28]: 8 µg/mL (≈ 11.3 µM); MIC [29]: 0.125 µg/mL (≈ 0.177 µM); MIC [30]: 0.125 µg/mL (≈ 0.177 µM) |
| C[C@@H](c1ncncc1F)[C@](O)(Cn1cncn1)c1ccc(F)cc1F [VORICONAZOLE] | 1 (≈ 2.86 µM) | 4 (≈ 11.5 µM) | 0.5 (≈ 1.43 µM) | 2 (≈ 5.73 µM) | 2 (≈ 5.73 µM) | 0.5 (≈ 1.43 µM) | 8 (≈ 22.9 µM) | 0.25 (≈ 0.716 µM) | 0.25 (≈ 0.716 µM) | 2 (≈ 5.73 µM) | 2 (≈ 5.73 µM) | > 16 | 1 (≈ 2.86 µM) | 0.25 (≈ 0.716 µM) | 4 (≈ 11.5 µM) | 1 (≈ 2.86 µM) | 0.25 (≈ 0.716 µM) | 1 (≈ 2.86 µM) | 2 (≈ 5.73 µM) | 2 (≈ 5.73 µM) | MIC [21]: 1 µg/mL (≈ 2.86 µM); MIC [22]: 1 µg/mL (≈ 2.86 µM); MIC [23]: 1 µg/mL (≈ 2.86 µM); MIC [24]: 8 µg/mL (≈ 22.9 µM); MIC [25]: 8 µg/mL (≈ 22.9 µM); MIC [26]: 4 µg/mL (≈ 11.5 µM); MIC [27]: 8 µg/mL (≈ 22.9 µM); MIC [28]: 0.25 µg/mL (≈ 0.716 µM); MIC [29]: 0.5 µg/mL (≈ 1.43 µM); MIC [30]: 0.5 µg/mL (≈ 1.43 µM) |
| CC[C@@H]([C@H](C)O)n1ncn(-c2ccc(N3CCN(c4ccc(OC[C@@H]5CO[C@@](Cn6cncn6)(c6ccc(F)cc6F)C5)cc4)CC3)cc2)c1=O [POSACONAZOLE] | 0.063 (≈ 0.0899 µM) | 0.5 (≈ 0.713 µM) | 0.125 (≈ 0.178 µM) | > 16 | 0.25 (≈ 0.357 µM) | 0.031 (≈ 0.0442 µM) | 0.25 (≈ 0.357 µM) | 0.25 (≈ 0.357 µM) | > 16 | 2 (≈ 2.85 µM) | 0.063 (≈ 0.0899 µM) | 1 (≈ 1.43 µM) | 0.063 (≈ 0.0899 µM) | 0.063 (≈ 0.0899 µM) | 0.5 (≈ 0.713 µM) | 0.063 (≈ 0.0899 µM) | 0.063 (≈ 0.0899 µM) | 0.5 (≈ 0.713 µM) | 0.125 (≈ 0.178 µM) | 0.25 (≈ 0.357 µM) | MIC [21]: 0.125 µg/mL (≈ 0.178 µM); MIC [22]: 0.5 µg/mL (≈ 0.713 µM); MIC [23]: 0.5 µg/mL (≈ 0.713 µM); MIC [24]: 1 µg/mL (≈ 1.43 µM); MIC [25]: 0.5 µg/mL (≈ 0.713 µM); MIC [26]: 0.5 µg/mL (≈ 0.713 µM); MIC [27]: > 16 µg/mL; MIC [28]: 0.125 µg/mL (≈ 0.178 µM); MIC [29]: 0.016 µg/mL (≈ 0.0228 µM); MIC [30]: 0.063 µg/mL (≈ 0.0899 µM) |
